Assays:
Format in all cases: in vivo
Stellaria media [1] = test: Post-emergence herbicidal effect; details: assessed visually after about 3 weeks vs untreated controls
Summary of the method: (§1)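 Sow in sandy loam; grow in greenhouse 2–3 wk; spray one-leaf plants with WP or EC suspension/emulsion (600–800 L/ha water, 0.2% wetter); hold ~3 wk under optimal conditions; rate visually vs untreated (0–100%).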

Viola tricolor [2] = test: Post-emergence herbicidal effect; details: assessed visually after about 3 weeks vs untreated controls
Summary of the method: as §1

Veronica persica [3] = test: Post-emergence herbicidal effect; details: assessed visually after about 3 weeks vs untreated controls
Summary of the method: as §1

Cyperus esculentus = test: Pre-emergence herbicidal effect; details: Dosage 320 g/ha, scored visually after 3 weeks
Summary of the method: (§2)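 Pre-em soil-surface spray; sandy loam, seeds covered with soil. WP/EC, aq. suspension/emulsion, 600–800 L/ha, +0.2% wetting agent. GH 3 wk; visual % activity vs untreated (100% = dead).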

Matricaria inodora = test: Pre-emergence herbicidal effect; details: scored visually after 3 weeks
Summary of the method: as §2

Amaranthus retroflexus [4] = test: Pre-emergence herbicidal effect; details: scored visually after 3 weeks
Summary of the method: as §2

Viola tricolor [5] = test: Pre-emergence herbicidal effect; details: scored visually after 3 weeks
Summary of the method: as §2

Veronica persica [6] = test: Pre-emergence herbicidal effect; details: scored visually after 3 weeks
Summary of the method: as §2

Alopecurus myosuroides [7] = test: Post-emergence herbicidal effect; details: 320 g/ha, assessed visually after about 3 weeks vs untreated controls
Summary of the method: as §1

Echinochloa crus-galli [8] = test: Post-emergence herbicidal effect; details: assessed visually after about 3 weeks vs untreated controls
Summary of the method: as §1

Setaria viridis [9] = test: Post-emergence herbicidal effect; details: assessed visually after about 3 weeks vs untreated controls
Summary of the method: as §1

Abutilon theophrasti [10] = test: Post-emergence herbicidal effect; details: assessed visually after about 3 weeks vs untreated controls
Summary of the method: as §1

Amaranthus retroflexus [11] = test: Post-emergence herbicidal effect; details: assessed visually after about 3 weeks vs untreated controls
Summary of the method: as §1

Lolium multiflorum [12] = test: Post-emergence herbicidal effect; details: 320 g/ha, assessed visually after about 3 weeks vs untreated controls
Summary of the method: as §1

Alopecurus myosuroides [13] = test: Pre-emergence herbicidal effect; details: Dosage 320 g/ha, scored visually after 3 weeks
Summary of the method: as §2

Echinochloa crus-galli [14] = test: Pre-emergence herbicidal effect; details: scored visually after 3 weeks
Summary of the method: as §2

Polygonum convolvulus = test: Pre-emergence herbicidal effect; details: scored visually after 3 weeks
Summary of the method: as §2

Setaria viridis [15] = test: Pre-emergence herbicidal effect; details: scored visually after 3 weeks
Summary of the method: as §2

Abutilon theophrasti [16] = test: Pre-emergence herbicidal effect; details: scored visually after 3 weeks
Summary of the method: as §2

Stellaria media [17] = test: Pre-emergence herbicidal effect; details: scored visually after 3 weeks
Summary of the method: as §2

Ipomoea purpurea = test: Post-emergence herbicidal effect; details: assessed visually after about 3 weeks vs untreated controls
Summary of the method: as §1

Lolium multiflorum [18] = test: Pre-emergence herbicidal effect; details: Dosage 320 g/ha, scored visually after 3 weeks
Summary of the method: as §2

Row | SMILES | post-emergence efficacy STEME (Stellaria media [1]; 320 g/ha) [%] | post-emergence efficacy VIOTR (Viola tricolor [2]; 320 g/ha) [%] | post-emergence efficacy VERPE (Veronica persica [3]; 320 g/ha) [%] | CYPES pre-emergence efficacy (herbicidal activity) (Cyperus esculentus) [%] | MATIN pre-emergence efficacy (herbicidal activity) (Matricaria inodora; Dosage 320 g/ha) [%] | AMARE pre-emergence efficacy (herbicidal activity) (Amaranthus retroflexus [4]; Dosage 320 g/ha) [%] | VIOTR pre-emergence efficacy (herbicidal activity) (Viola tricolor [5]; Dosage 320 g/ha) [%] | VERPE pre-emergence efficacy (herbicidal activity) (Veronica persica [6]; Dosage 320 g/ha) [%] | post-emergence efficacy ECHCG (Echinochloa crus-galli [8]; 80 g/ha) [%] | post-emergence efficacy ECHCG (Echinochloa crus-galli [8]; 320 g/ha) [%] | post-emergence efficacy SETVI (Setaria viridis [9]; 80 g/ha) [%] | post-emergence efficacy SETVI (Setaria viridis [9]; 320 g/ha) [%] | post-emergence efficacy ABUTH (Abutilon theophrasti [10]; 80 g/ha) [%] | post-emergence efficacy ABUTH (Abutilon theophrasti [10]; 320 g/ha) [%] | post-emergence efficacy AMARE (Amaranthus retroflexus [11]; 80 g/ha) [%] | post-emergence efficacy AMARE (Amaranthus retroflexus [11]; 320 g/ha) [%] | post-emergence efficacy VIOTR (Viola tricolor [2]; 80 g/ha) [%] | post-emergence efficacy VERPE (Veronica persica [3]; 80 g/ha) [%] | ALOMY pre-emergence efficacy (herbicidal activity) (Alopecurus myosuroides [13]) [%] | ECHCG pre-emergence efficacy (herbicidal activity) (Echinochloa crus-galli [14]; Dosage 80 g/ha) [%] | also measured
1 | CS(=O)(=O)c1cnc(NC2CCCc3occc32)nc1N (racemic) [compound 13] | 80 | 100 | 90 | 100 | 100 | 100 | 100 | 90 |  |  |  |  |  |  |  |  |  |  |  |  | 
2 | Cc1cc2c(s1)C(Nc1ncc(S(C)(=O)=O)c(N)n1)CCC2 (racemic) [compound 19] | 100 | 100 | 100 | 80 | 100 | 100 | 100 | 100 | 100 | 100 | 90 | 100 | 90 | 90 | 80 | 90 | 90 | 90 | 100 | 100 | post-emergence efficacy ALOMY (Alopecurus myosuroides [7]): 90%; post-emergence efficacy STEME (Stellaria media [1]; 80 g/ha): 80%; post-emergence efficacy LOLMU (Lolium multiflorum [12]): 80%; ECHCG pre-emergence efficacy (herbicidal activity) (Echinochloa crus-galli [14]; Dosage 320 g/ha): 100%; MATIN pre-emergence efficacy (herbicidal activity) (Matricaria inodora; Dosage 80 g/ha): 100%; POLCO pre-emergence efficacy (herbicidal activity) (Polygonum convolvulus; Dosage 320 g/ha): 80%; SETVI pre-emergence efficacy (herbicidal activity) (Setaria viridis [15]; Dosage 80 g/ha): 100%; SETVI pre-emergence efficacy (herbicidal activity) (Setaria viridis [15]; Dosage 320 g/ha): 100%; ABUTH pre-emergence efficacy (herbicidal activity) (Abutilon theophrasti [16]; Dosage 80 g/ha): 80%; ABUTH pre-emergence efficacy (herbicidal activity) (Abutilon theophrasti [16]; Dosage 320 g/ha): 100%; AMARE pre-emergence efficacy (herbicidal activity) (Amaranthus retroflexus [4]; Dosage 80 g/ha): 100%; STEME pre-emergence efficacy (herbicidal activity) (Stellaria media [17]; Dosage 80 g/ha): 100%; STEME pre-emergence efficacy (herbicidal activity) (Stellaria media [17]; Dosage 320 g/ha): 100%; VIOTR pre-emergence efficacy (herbicidal activity) (Viola tricolor [5]; Dosage 80 g/ha): 100%; VERPE pre-emergence efficacy (herbicidal activity) (Veronica persica [6]; Dosage 80 g/ha): 100%
3 | Cc1cc2c(s1)CCCC2Nc1ncc(S(C)(=O)=O)c(N)n1 (racemic) [compound 59] |  | 80 | 100 | 80 | 100 | 100 | 100 | 100 | 20 | 100 | 90 | 90 | 20 | 20 | 60 | 90 | 80 | 90 | 80 | 100 | post-emergence efficacy PHBPU (Ipomoea purpurea; 80 g/ha): 80%; post-emergence efficacy PHBPU (Ipomoea purpurea; 320 g/ha): 80%; ECHCG pre-emergence efficacy (herbicidal activity) (Echinochloa crus-galli [14]; Dosage 320 g/ha): 100%; MATIN pre-emergence efficacy (herbicidal activity) (Matricaria inodora; Dosage 80 g/ha): 100%; POLCO pre-emergence efficacy (herbicidal activity) (Polygonum convolvulus; Dosage 80 g/ha): 80%; POLCO pre-emergence efficacy (herbicidal activity) (Polygonum convolvulus; Dosage 320 g/ha): 100%; SETVI pre-emergence efficacy (herbicidal activity) (Setaria viridis [15]; Dosage 80 g/ha): 80%; SETVI pre-emergence efficacy (herbicidal activity) (Setaria viridis [15]; Dosage 320 g/ha): 100%; ABUTH pre-emergence efficacy (herbicidal activity) (Abutilon theophrasti [16]; Dosage 80 g/ha): 80%; ABUTH pre-emergence efficacy (herbicidal activity) (Abutilon theophrasti [16]; Dosage 320 g/ha): 100%; AMARE pre-emergence efficacy (herbicidal activity) (Amaranthus retroflexus [4]; Dosage 80 g/ha): 100%; STEME pre-emergence efficacy (herbicidal activity) (Stellaria media [17]; Dosage 80 g/ha): 100%; STEME pre-emergence efficacy (herbicidal activity) (Stellaria media [17]; Dosage 320 g/ha): 100%; VIOTR pre-emergence efficacy (herbicidal activity) (Viola tricolor [5]; Dosage 80 g/ha): 100%; VERPE pre-emergence efficacy (herbicidal activity) (Veronica persica [6]; Dosage 80 g/ha): 100%; LOLMU pre-emergence efficacy (herbicidal activity) (Lolium multiflorum [18]): 90%

Source: patent publication US10251395B2, “Substituted furano-/thienocycloalkylamino-2-pyrimidine derivatives and use thereof for controlling undesired plant growth” (Bayer CropScience Aktiengesellschaft, priority 2015, dated 2019)
